Measurements: ChEMBL document CHEMBL1201862, “PubChem BioAssay data set” (2004)
Calls of active or inactive are those of the source.

Legend:
[1] = cytotoxicity in OVCAR8 ovarian cancer cells, dose response, PAX8 project, cell-based, plate reader, dry powder samples (AID 743197); assay type: functional; details: OVCAR-8
[2] = molecular target: Paired box protein Pax-8 (Homo sapiens, UniProt Q06710); assay: inhibitors of PAX8-driven TPO luciferase reporter, dose response, RMG-I cells, cherry-pick (AID 687027); assay type: functional, cell-based;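 note: luciferase reporter driven by Pax8 target thyroperoxidase promoter measured by SteadyGlo luminescence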
Chain of Paired box protein Pax-8 (Q06710 whole entry): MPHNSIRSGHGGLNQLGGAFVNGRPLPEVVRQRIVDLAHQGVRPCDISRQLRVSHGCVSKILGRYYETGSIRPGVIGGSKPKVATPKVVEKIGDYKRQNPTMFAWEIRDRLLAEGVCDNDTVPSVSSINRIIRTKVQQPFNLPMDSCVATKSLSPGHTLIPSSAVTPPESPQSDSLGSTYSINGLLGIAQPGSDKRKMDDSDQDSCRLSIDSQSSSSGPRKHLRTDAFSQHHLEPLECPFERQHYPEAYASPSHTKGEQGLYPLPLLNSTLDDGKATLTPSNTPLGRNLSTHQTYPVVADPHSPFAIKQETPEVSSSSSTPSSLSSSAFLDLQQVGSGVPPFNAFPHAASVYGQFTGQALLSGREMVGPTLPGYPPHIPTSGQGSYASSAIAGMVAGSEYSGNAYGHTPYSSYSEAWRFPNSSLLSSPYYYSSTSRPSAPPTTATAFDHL

[3] = NIH:OVCAR-3 ovarian cancer cell cytotoxicity, dose response, PAX8 inhibitor project, plate reader, dry powder samples (AID 743044); assay type: functional, cell-based
[4] = molecular target: T1, Oxysterols receptor LXR-beta (Homo sapiens, UniProt P55055); assay: LXR agonists, Gal4 luciferase reporter, dose response, counter-screen for ssDAF-12 agonist project, cell-based, luminescence, HEK293, S. stercoralis campaign (AID 720737); assay type: functional; details: read-out: IC50 (the source's name)
T1 sequence (P55055 whole entry): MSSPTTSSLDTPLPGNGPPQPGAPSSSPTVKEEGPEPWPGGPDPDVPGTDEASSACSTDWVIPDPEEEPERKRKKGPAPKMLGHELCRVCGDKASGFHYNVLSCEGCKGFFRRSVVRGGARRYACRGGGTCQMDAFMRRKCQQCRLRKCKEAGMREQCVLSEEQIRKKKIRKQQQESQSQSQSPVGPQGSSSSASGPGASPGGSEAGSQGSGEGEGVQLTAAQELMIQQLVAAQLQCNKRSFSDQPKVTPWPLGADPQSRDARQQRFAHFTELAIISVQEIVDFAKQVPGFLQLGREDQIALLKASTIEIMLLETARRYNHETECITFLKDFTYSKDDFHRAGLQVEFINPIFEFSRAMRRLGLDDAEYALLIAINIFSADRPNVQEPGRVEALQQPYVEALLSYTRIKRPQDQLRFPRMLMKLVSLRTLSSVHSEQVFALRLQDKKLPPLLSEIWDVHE

[5] = Luminescence-based cell-based high throughput dose response assay to identify activators of the DAF-12 from the parasite S. stercoralis (ssDAF-12).; assay type: functional
[6] = molecular target: T2, Methionyl-tRNA synthetase, putative (Trypanosoma brucei brucei, UniProt Q38C91); assay type: functional, Trypanosoma brucei brucei strain 927/4 GUTat10.1
T2 sequence (Q38C91 whole entry): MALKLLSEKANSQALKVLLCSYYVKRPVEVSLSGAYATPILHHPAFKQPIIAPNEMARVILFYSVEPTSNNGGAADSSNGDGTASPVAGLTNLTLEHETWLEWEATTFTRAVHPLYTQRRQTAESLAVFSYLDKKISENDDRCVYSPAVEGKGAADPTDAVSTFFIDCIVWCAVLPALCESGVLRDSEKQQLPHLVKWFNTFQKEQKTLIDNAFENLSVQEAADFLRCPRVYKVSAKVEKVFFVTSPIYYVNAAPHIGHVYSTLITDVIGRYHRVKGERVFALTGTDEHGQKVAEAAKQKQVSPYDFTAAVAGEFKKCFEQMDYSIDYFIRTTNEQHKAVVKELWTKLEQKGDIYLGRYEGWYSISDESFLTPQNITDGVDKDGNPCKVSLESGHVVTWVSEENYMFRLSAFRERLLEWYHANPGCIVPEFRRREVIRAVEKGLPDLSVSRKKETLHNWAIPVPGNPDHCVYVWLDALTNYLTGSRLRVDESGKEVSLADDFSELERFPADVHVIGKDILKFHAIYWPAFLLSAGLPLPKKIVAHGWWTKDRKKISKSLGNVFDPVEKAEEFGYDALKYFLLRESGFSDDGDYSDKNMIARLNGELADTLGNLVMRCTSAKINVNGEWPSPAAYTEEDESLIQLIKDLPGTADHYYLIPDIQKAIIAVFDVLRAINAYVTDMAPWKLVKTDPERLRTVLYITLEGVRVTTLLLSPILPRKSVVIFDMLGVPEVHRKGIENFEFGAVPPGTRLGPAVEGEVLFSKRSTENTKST

[7] = Counterscreen for inhibitors of Trypanosoma brucei methionyl tRNA synthetase (MetRS): Luminescence-based cell-based high throughput dose response assay to identify compounds that are cytotoxic to Jurkat human T lymphocyte cells.; assay type: functional
[8] = molecular target: T2, Methionyl-tRNA synthetase, putative; assay type: functional, Trypanosoma brucei brucei strain 927/4 GUTat10.1; remark: listed apart in the source
[9] = system: Streptococcus; assay: Group A Streptococcus viability loss, dose response, counter-screen for streptokinase expression inhibitor project, luminescence, BacTiterGlo (AID 1915); assay type: functional, organism-based;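 note: potency for reduction of bacterial viability or growth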
[10] = molecular target: T3, Streptokinase A (Streptococcus pyogenes serotype M1, UniProt P10520); assay: S. pyogenes streptokinase expression inhibitors, potency, dose response, plasminogen activation absorbance, OD405 (AID 1914); assay type: functional, Streptococcus pyogenes M1 GAS;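 note: secreted streptokinase activity via plasminogen activation per viability signal from cell pellet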
T3 sequence (P10520 whole entry): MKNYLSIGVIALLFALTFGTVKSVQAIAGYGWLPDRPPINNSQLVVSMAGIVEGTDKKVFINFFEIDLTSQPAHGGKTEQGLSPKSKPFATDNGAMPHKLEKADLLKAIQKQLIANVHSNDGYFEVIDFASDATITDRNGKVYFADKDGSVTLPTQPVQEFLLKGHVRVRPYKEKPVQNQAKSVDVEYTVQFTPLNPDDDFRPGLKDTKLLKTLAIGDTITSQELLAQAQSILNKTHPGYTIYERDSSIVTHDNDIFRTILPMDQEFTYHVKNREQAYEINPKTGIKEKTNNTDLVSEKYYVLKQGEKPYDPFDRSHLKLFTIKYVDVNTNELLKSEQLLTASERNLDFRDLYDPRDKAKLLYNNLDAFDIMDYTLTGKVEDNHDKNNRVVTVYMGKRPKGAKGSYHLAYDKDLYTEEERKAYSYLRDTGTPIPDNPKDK

[11] = system: Streptococcus sp. 'group A'; assay: growth inhibition of control SK(-) GAS strain, dose response, counter-screen for streptokinase expression inhibitor project, luminescence, kanamycin, BacTiterGlo, confirmation (AID 1900); assay type: functional, organism-based
[12] = M. tuberculosis H37Rv growth inhibitors, H37Rv strain (AID 1626); assay type: functional
[13] = molecular target: T4, Rac GTPase-activating protein 1 (Homo sapiens, UniProt Q9H0H5); assay: MgcRacGAP GTPase-activating activity inhibitors, confirmation, biochemical, ADP Hunter fluorescence, primary and confirmatory (AID 624330); assay type: functional
T4 sequence (Q9H0H5 whole entry): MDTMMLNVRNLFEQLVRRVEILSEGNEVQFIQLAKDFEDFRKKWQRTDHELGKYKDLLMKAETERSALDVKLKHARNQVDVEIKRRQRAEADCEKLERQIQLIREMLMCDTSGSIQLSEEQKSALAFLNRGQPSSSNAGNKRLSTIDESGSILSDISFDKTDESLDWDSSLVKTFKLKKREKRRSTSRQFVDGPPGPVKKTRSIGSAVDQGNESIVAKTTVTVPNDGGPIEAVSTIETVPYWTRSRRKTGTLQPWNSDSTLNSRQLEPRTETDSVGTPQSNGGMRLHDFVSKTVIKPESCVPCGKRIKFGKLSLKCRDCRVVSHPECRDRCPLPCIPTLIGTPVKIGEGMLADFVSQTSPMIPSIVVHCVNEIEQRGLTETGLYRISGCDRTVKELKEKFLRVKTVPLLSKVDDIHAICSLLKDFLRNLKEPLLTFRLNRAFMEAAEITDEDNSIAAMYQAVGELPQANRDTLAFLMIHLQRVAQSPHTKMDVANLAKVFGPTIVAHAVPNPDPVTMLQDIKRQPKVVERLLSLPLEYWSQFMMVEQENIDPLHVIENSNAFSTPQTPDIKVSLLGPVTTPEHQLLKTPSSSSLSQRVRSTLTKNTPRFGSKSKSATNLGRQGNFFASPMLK

[14] = HeLa cell cytotoxicity, dose response, cytotoxicity control for MgcRacGAP inhibitor project (AID 624300); assay type: functional
[15] = cells
[16] = molecular target: T1, Oxysterols receptor LXR-beta; assay type: functional, cell-based
[17] = MC4R antagonists, dose response, counter-screen for LGR2 antagonist project, cell-based, plate reader, cherry pick (AID 743444); assay type: functional;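 note: transfected HEK 293 cells stimulated with alpha-MSH peptide; potency of inhibitors of the alpha-MSH evoked signal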
[18] = LGR2 antagonists, dose response, cell-based, HEK293, CRE-luciferase reporter, cherry pick, set 2 (AID 743343); assay type: functional;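 note: transfected cells were stimulated with diluted bursicon conditioned medium after compound addition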
[19] = A549 cell cytotoxicity, dose response, cytotoxicity control, plate reader, cherry-pick, antagonist series (AID 743412); assay type: functional, cell-based
[20] = HEK293 cell cytotoxicity, dose response, cytotoxicity control, plate reader, cherry-picked samples (AID 743446); assay type: functional, cell-based
[21] = molecular target: Albumin (Bos taurus, UniProt P02769); assay: Counterscreen for inhibitors of T-cell receptor (TCR)-CD3 interaction: Fluorescence-based biochemical high throughput dose response assay to identify inhibitors of T-cell receptor (TCR)-CD3 interaction using a TAMRA-labeled BSA probe.; assay type: functional
Chain of Albumin (P02769 whole entry): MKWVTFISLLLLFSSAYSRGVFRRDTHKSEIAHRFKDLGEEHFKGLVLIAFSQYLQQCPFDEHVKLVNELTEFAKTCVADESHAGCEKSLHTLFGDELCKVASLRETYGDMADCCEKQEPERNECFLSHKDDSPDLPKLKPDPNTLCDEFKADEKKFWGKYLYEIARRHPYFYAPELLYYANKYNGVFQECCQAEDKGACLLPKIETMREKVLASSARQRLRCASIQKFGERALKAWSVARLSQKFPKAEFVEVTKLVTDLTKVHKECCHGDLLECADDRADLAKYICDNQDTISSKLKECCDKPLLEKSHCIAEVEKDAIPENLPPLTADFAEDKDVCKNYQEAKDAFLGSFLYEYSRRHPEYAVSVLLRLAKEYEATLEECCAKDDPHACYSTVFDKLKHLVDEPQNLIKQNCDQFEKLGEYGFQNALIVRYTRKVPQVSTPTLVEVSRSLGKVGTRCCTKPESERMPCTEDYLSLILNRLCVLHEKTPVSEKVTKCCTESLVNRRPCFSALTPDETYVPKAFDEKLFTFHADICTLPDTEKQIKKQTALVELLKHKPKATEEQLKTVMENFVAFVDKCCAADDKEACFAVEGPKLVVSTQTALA

For Cc1ccc(S(=O)(=O)Nc2ccc3c(c2)C(=O)N([C@H](C)CO)C[C@@H](C)[C@H](CN(C)Cc2ccc(Cl)c(Cl)c2)OCCCC[C@H](C)O3)cc1, the AC50 [1] was 37.8 µM (active), the AC50 [2] was 6.2 µM (active) and the AC50 [3] was 25.4 µM (active).

For C[C@@H]1CCCCO[C@@H](CN(C)Cc2ccc(C(F)(F)F)cc2)[C@H](C)CN([C@@H](C)CO)C(=O)c2cc(NC(=O)Nc3ccc(F)cc3)ccc2O1, the AC50 [2] was 3.37 µM (active) and the AC50 [3] was 45.7 µM (active).

With Cn1cnc(NCc2ccccc2)c1[N+](=O)[O-] the EC50 [4] was > 67.5 µM (inactive) and the IC50 [5] was > 67.5 µM (inactive).

For COc1ccc(-c2nnc(SC(C(=O)c3c[nH]c4ccccc34)c3ccccc3)n2N)cc1OC (stereo not drawn), the IC50 [6] was 33.8 µM (inactive), the IC50 [7] was 83.3 µM (inactive) and the IC50 [8] was 99 µM (inactive). For the same molecule, the EC50 [9] was 102 µM (active), the EC50 [10] was > 150 µM (not active) and the EC50 [11] was 8.65 µM (active). The IC50 [12] was > 100 µM (active).

In the case of Oc1ccc(/C=N/Nc2nn3cnnc3c3ccccc23)cc1, the IC50 [13] is reported as 22.2 µM (active) and the CC50 [14] is reported as 100 µM (active).

With Cc1ccsc1C(=O)OCc1csc(-c2ccccc2)n1 the EC50 [15] was > 67.5 µM (inactive) and the EC50 [16] was > 67.5 µM (inactive).

With Cc1cccc(-c2ccc([C@H]3[C@@H](CO)N4CCCCN(C(=O)c5ccc6c(c5)OCO6)C[C@@H]34)cc2)c1 the AC50 [17] was 15.4 µM (active), the AC50 [18] was 14.2 µM (active) and the AC50 [19] was 26.4 µM (active). The AC50 [20] was 15.6 µM (active).

For Cc1onc(-c2ccccc2)c1C(=O)NN=Cc1cc(Cl)cc(Cl)c1O, the IC50 [21] was > 94 µM (inactive).
